Measurements taken from patent US20240125729A1, “METHODS AND RELATED ASPECTS OF DETECTING TARGET MOLECULES USING CYCLIC VOLTAMMETRY” (THE JOHNS HOPKINS UNIVERSITY, priority 2021, published 2024).
Several values for one entry are separate records, joined by “and”; a condition that tells them apart may be missing. Equal entries are not always repeated. Values belong to the molecule of their own block, whether it stands above or below them.

Legend:
procaine-binding aptamer [1] = assay: Square wave voltammetry calibration of procaine-binding E-AB sensors; settings: 100 Hz, amplitude 50 mV, step 1 mV, read-out: KD (dissociation constant) by square-wave voltammetry
Description: FIG. 12 is a plot showing a calibration curve for procaine-binding E-AB sensors obtained by square wave voltammetry. The Hill's coefficient and dissociation constant obtained were 0.97±0.05 and 1.9±0.2 mM, respectively. Each point represents the average of 5·measurements at a frequency of 100 Hz, amplitude of 50 mV, and step potential of 1 mV.
These sequences were purchased modified on the 5′end with hexanethiol and on the 3′end with MB, and double HPLC purified. To prepare aptamer solutions for electrode modification, 1 μL of 100 μM of the modified sequences was incubated with 2 μL of 5 mM TCEP solution in water for 1 hour to reduce the disulfide bonds. Then, we diluted the aptamer solutions in 1 mM 6-mercaptohexanol aqueous solution to a final aptamer concentration of 500 nM.
Electrochemical measurements. Gold working (PN 002314, d=1.6 mm) and coiled platinum wire counter electrodes (PN 012961) were purchased from ALS Inc. (Japan). Ag/AgCl (1M KCl) reference electrodes (PN CHI111) were purchased from CH Instruments (USA). […] Cyclic voltammograms were recorded at different scan rates in the potential window from −0.5 V to +0.1 V vs Ag/AgCl (1M KCl). Square-wave voltammograms were recorded from 0 V to −0.5 V vs Ag/AgCl (1M KCl) with an amplitude of 50 mV, a step size of 1 mV, and at 300 Hz. […]
(§1) Electrode modification. […] After rinsing with water, electrodes were ready for use. […]

procaine-binding aptamer [2] = assay: Cyclic voltammetry ΔEP interrogation of procaine-detecting E-AB sensors in undiluted serum
Description: (§2) ΔEP-based interrogation of E-AB sensors supports molecular measurements in complex media such as undiluted serum. Moreover, the approach can be used to interrogate E-AB sensors detecting different molecular targets. […] Furthermore, the relative change in ΔEP at 10 mM tobramycin was 30% less than the gain seen in phosphate-buffered saline. Both of these effects were previously reported for serum tobramycin E-AB measurements performed by chronoamperometry, confirming that ΔEP is not more prone to fouling than, for example, chronoamperometric current decay lifetimes. […] Last, procaine-detecting E-AB sensors presented the largest change in ΔEP, corresponding to a relative decrease of ˜80% at saturating procaine concentrations (FIG. 11C). Based on our calibration curve, the procaine-binding aptamer has a KD of ˜500 μM, slightly better than the affinity obtained by, for example, square-wave voltammetry (KD˜2 mM, FIG. 12). […]
(§3) Electrochemical measurements. […] Cyclic voltammograms were recorded at different scan rates in the potential window from −0.5 V to +0.1 V vs Ag/AgCl (1M KCl). Square-wave voltammograms were recorded from 0 V to −0.5 V vs Ag/AgCl (1M KCl) with an amplitude of 50 mV, a step size of 1 mV, and at 300 Hz. […]
as §1

[3] = system: tobramycin-binding aptamer; assay: Cyclic voltammetry (ΔEP / IP) interrogation of tobramycin-detecting E-AB sensors
Excerpt: The magnitude of ΔEP in cyclic voltammetry can be used to interrogate changes in the apparent electron transfer kinetics of E-AB sensors. ΔEP is affected by a mass transfer (diffusional) component related to the conformation switching behavior of aptamers; thus, measured changes in ΔEP reflect target-binding induced changes in aptamer conformation. We first illustrate this effect employing tobramycin-detecting E-AB sensors (FIG. 5), which have been extensively validated in the literature and represent a well-understood model system. In these E-AB sensors, interrogation by cyclic voltammetry in the absence of target and at voltage scanning rates of ˜1-10 V·s^−1 results in voltammograms with a ΔEP ˜100 mV (FIG. 5A). However, the addition of a saturating concentration of tobramycin (10 mM) causes a significant increase in apparent electron transfer kinetics with a concomitant decrease in ΔEP to ˜30 mV (FIG. 5A, B). Similar measurements at varying tobramycin concentrations can be translated into dose-response curves (FIG. 5C). The dissociation constant estimated by extrapolating the mid-point of these dose-response curves to the x-axis, KD˜80 μM, is similar to previously reported KD measurements based on chronoamperometric and differential pulse measurements.
As with all E-AB interrogation methods, there is a tradeoff between the maximum signal gain observed by ΔEP and the apparent dissociation constant of the sensors. To illustrate this, we measured dose-response curves as shown in FIG. 5C at scanning rates ranging from 0.5 to 100 V·s^−1 (FIG. 6). Then, we determined the apparent dissociation constant at each scanning rate by performing a non-linear regression of the data sets using the Hill isotherm. […] Moreover, the shape of the voltammograms was distorted at fast scanning rates, preventing the accurate determination of ΔEP (FIG. 8). Thus, taking into consideration the results presented in FIGS. 7A and B, we determined that the best CV interrogation rate for tobramycin-detecting E-AB sensor was 5 V·s^−1.
E-AB interrogation via ΔEP achieves larger signal gains relative to interrogation based on CV peak heights. To illustrate this point, we measured dose-response curves at the optimal voltage scanning rate of 5 V·s^−1 and compared the response based on voltammogram peak currents, IP, at varying tobramycin concentrations relative to the proposed ΔEP-based method (FIG. 7C). To achieve a direct comparison between approaches, we calculated the relative change in signal at each concentration with respect to the signal measured in the absence of target (this is common practice in the field). By graphing IP vs concentration, we observed a ‘signal-on’ type of response, with IP increasing to a plateau of 20% relative signal change at saturation. Using ΔEP, in contrast, we observed a ‘signal-off’ type of response, with ΔEP decreasing by 80% relative signal change at saturation. […] On the other hand, ΔEP provides a signal-off response that is less desirable than the signal-on response achieved by monitoring IP. Typically, the use of signal-off sensing is sub-optimal for continuous monitoring in complex fluids, as matrix effects can induce signal decreases unrelated to fluctuations in target concentration that can be confounding during sensing.
ΔEP-based interrogation of E-AB sensors supports molecular measurements in complex media such as undiluted serum. Moreover, the approach can be used to interrogate E-AB sensors detecting different molecular targets. […] Furthermore, the relative change in ΔEP at 10 mM tobramycin was 30% less than the gain seen in phosphate-buffered saline. Both of these effects were previously reported for serum tobramycin E-AB measurements performed by chronoamperometry, confirming that ΔEP is not more prone to fouling than, for example, chronoamperometric current decay lifetimes. […]

[4] = target: vancomycin-binding aptamer; assay: Cyclic voltammetry ΔEP interrogation of vancomycin-detecting E-AB sensors in undiluted serum
Description: as §2, §3, §1

[5] = CV 5 V·s^−1, phosphate-buffered saline, relative to no target

- Kd (procaine-binding aptamer [1]): 1900 µM and ~2000 µM
- Kd (procaine-binding aptamer [2]; cyclic voltammetry, read-out: KD from calibration curve (ΔEP)): ~500 µM
- relative decrease in ΔEP at saturating concentration (procaine-binding aptamer [2]; saturating procaine): ~80%
SMILES: CCN(CC)CCOC(=O)c1ccc(N)cc1 [procaine]

- relative change in ΔEP in undiluted serum, less than the gain seen in phosphate-buffered saline ([3]; 10 mM tobramycin, undiluted serum vs phosphate-buffered saline): 30%
- IP (peak current) increase, relative signal change at saturation (signal-on) [3, 5]: 20%
- ΔEP decrease, relative signal change at saturation (signal-off) [3, 5]: 80%
- Kd ([3]; CV at 5 V·s^−1, phosphate-buffered saline, Hill fit, 5 electrodes, read-out: KD (dissociation constant from ΔEP dose-response curve)): 80 ± 7 µM
- ΔEP (peak-to-peak separation) after target addition ([3]; saturating tobramycin 10 mM, without target ~100 mV, scanning rates ~1-10 V·s^−1): ~30 mV
- affinity in undiluted serum relative to phosphate-buffered saline ([3]; undiluted serum, ΔEP-based interrogation): significant decrease in affinity
SMILES: NC[C@H]1O[C@H](O[C@H]2[C@H](O)[C@@H](O[C@H]3O[C@H](CO)[C@@H](O)[C@H](N)[C@H]3O)[C@H](N)C[C@@H]2N)[C@H](N)C[C@@H]1O [tobramycin]

SMILES: CN[C@H](CC(C)C)C(=O)N[C@H]1C(=O)N[C@@H](CC(N)=O)C(=O)N[C@H]2C(=O)N[C@H]3C(=O)N[C@H](C(=O)N[C@H](C(=O)O)c4cc(O)cc(O)c4-c4cc3ccc4O)[C@H](O)c3ccc(c(Cl)c3)Oc3cc2cc(c3O[C@@H]2O[C@H](CO)[C@@H](O)[C@H](O)[C@H]2O[C@H]2C[C@](C)(N)[C@H](O)[C@H](C)O2)Oc2ccc(cc2Cl)[C@H]1O [vancomycin]
- Kd ([4]; read-out: KD from serum calibration curve (ΔEP)): ~60 µM
- total relative change in ΔEP at saturating concentration ([4]; saturating vancomycin): ~50%
